For one assay, the system named is BCL-xL/BCL-2. As to the kind of experiment: Blocking of WH244-induced BCL-xL/BCL-2 degradation in Jurkat cells (immunoblot). The following applies: for Effect of proteasome / NEDD8-activating enzyme inhibition on WH244-mediated degradation of BCL-xL and BCL-2: Jurkat cells. Format: cell-based, human. The procedure:
The data are presented as mean ± s.d. from three replicate cell cultures in a representative experiment for Jurkat cells. h Left, WH244 induces polyubiquitination of WT, K22R BCL-2 and to some extent K17R but not K17/22R BCL-2 in 293T cells. 293T cells were co-transfected as indicated with Flag-BCL−2 WT or mutants and HA-tagged ubiquitin (HA-Ub) plasmids. After 36 h, cells were pretreated with MG132 (10 µM) for 2 h and then treated with or without WH244 (1 μM) for 5 h. The Flag-tagged proteins were immunoprecipitated (IP) and immunoblotted with HA or Flag antibody. Right, The input blot for this assay. Data are a representative of two independent experiments. Source data are provided as Source Data file.
A series of experiments were performed to assess the efficacy of WH244. […] These DC50 values were ~6.2 and 6.8-fold better than of 753b for BCL-xL (DC50 of 3.7 nM) and BCL-2 (DC50 of 50 nM), respectively. Also, WH244-mediated proteolysis of BCL-xL and BCL-2 was time-dependent with BCL-xL degrading faster than BCL-2 (Fig. 3c). […]
Cells were collected, washed once with ice-cold phosphate-buffered saline, pH 7.2 (PBS, cat. no. 20012027; Thermo Fisher Scientific) and lysed in RIPA lysis buffer (Cat. No. BP-115DG, Boston Bio Products, Ashland, MA, USA) supplemented with protease and phosphatase inhibitor cocktails (Cat. No. PPC1010, Sigma-Aldrich, St. Louis, MO, USA) through sonication. […] The protein concentration in the supernatants was determined using the Pierce BCA protein Assay kit (cat. no. 23225, Thermo Fisher Scientific). […] The membranes were blocked with non-fat dry milk (5% wt/vol) in 1×Tris- buffered saline-Tween-20 (TBST) for 1 h at room temperature, and were subsequently probed with primary antibodies at a pre-determined optimal concentration in non-fat dry milk (5% wt/vol in TBST) overnight at 4 °C. […] Following sufficient washing with TBST, the membranes were exposed with ECL Western Blotting Substrate (Bio-Rad), and the signal was detected using the ChemiDoc MP Imaging System (Bio-Rad) and quantified using the ImageJ (v1.53a) software from NIH. […]
On the technique in general: In western blotting, separated proteins are transferred to a membrane and probed.

In a further assay the test system is MOLT-4 T-ALL cells. As to the kind of experiment: Potency against MOLT-4 T-ALL cells in vitro. Format: cell-based. The following applies: Homo sapiens.
The next assay concerns RS4 B-ALL cells. Briefly: Potency against RS4 B-ALL cells in vitro. Format: cell-based.
In another assay the test system is human platelets. As to the kind of experiment: Potency against human platelets in vitro. The format is cell-based. The following applies: Platelet; human platelets in vitro.
Another assay concerns BCL-xL and BCL-2. Also on record: method as in Khan S et al. Nat Med, 25: 1938-1947, 2019. The following applies: ref Khan S et al. Nat Med, 25: 1938-1947, 2019; cited from earlier work.

Structures are written as SMILES. Residues, ends and D or L forms follow the SMILES beside them. *: point of attachment. Cbz = O=C(OCc1ccccc1)*

As a reminder, the IC50 is the concentration at which inhibition is half-maximal. Low values mean inhibition by little substance, high ones a need for much substance. For the molecule `CC1(C)CCC(c2ccc(Cl)cc2)=C(CN2CCN(c3ccc(C(=O)NS(=O)(=O)c4ccc(N[C@H](CCN5CCOCC5)CSc5ccccc5)c(S(=O)(=O)C(F)(F)F)c4)cc3)CC2)C1` [ABT263, Navitoclax], the “Effect of pretreatment on degradation of BCL-xL and BCL-2 with WH244” value with BCL-xL/BCL-2 (two hours pretreatment, then six-hour WH244, Jurkat cells) is listed as “completely blocked”. The 50% inhibitory concentration (IC50) in the assay on MOLT-4 T-ALL cells amounted to 220 nM; in the assay on RS4 B-ALL cells, 38 nM; in the assay with human platelets it was 310 nM.

With `Cc1ncsc1-c1ccc([C@H](C)NC(=O)[C@@H]2C[C@@H](O)CN2C(=O)[C@@H](NC(=O)CCCCCC(=O)N2CCN(CC[C@H](CSc3ccccc3)Nc3ccc(S(=O)(=O)NC(=O)c4ccc(N5CCN(CC6=C(c7ccc(Cl)cc7)CCC(C)(C)C6)CC5)cc4)cc3S(=O)(=O)C(F)(F)F)CC2)C(C)(C)C)cc1` [DT2216], the “Reduction in binding affinity to BCL-xL and BCL-2 on converting ABT263 into DT2216” value with BCL-xL and BCL-2 is listed as “about 8 fold”.

In the case of `CC(C)C[C@@H](C=O)NC(=O)[C@H](CC(C)C)NC(=O)[C@H](CC(C)C)NC(=O)OCc1ccccc1` [MG132] (Cbz-Leu-Leu-Leu-aldehyde), the “Effect of proteasome / NEDD8-activating enzyme inhibition on WH244-mediated degradation of BCL-xL and BCL-2” value in the assay on BCL-xL/BCL-2 was “abrogated”.

With `NS(=O)(=O)OC[C@@H]1C[C@@H](n2ccc3c(N[C@H]4CCc5ccccc54)ncnc32)C[C@@H]1O` [MLN4924], the “Effect of proteasome / NEDD8-activating enzyme inhibition on WH244-mediated degradation of BCL-xL and BCL-2” value in the assay on BCL-xL/BCL-2 was “abrogated”.

These data come from PMC10979003, “Development and crystal structures of a potent second-generation dual degrader of BCL-2 and BCL-xL” (Nature Communications, 2024).
